For 1 compound, Ka results are on record in ChEMBL document CHEMBL1124465, “Dynamics and thermodynamics of the counterion effect in a 7H-pyridocarbazole dimer (ditercalinium). Hypothesis of a nonbisintercalative binding mode to calf thymus DNA at high drug/base ratio” (J Med Chem, 1989).

The structures appear in SMILES notation.

The subject of assay [1] is Nucleic Acid. Description: Monointeraction into calf thymus DNA at pH 7.4. The class given is nucleic-acid assay.
Assay [2] relates to Nucleic Acid. In words: Monointeraction into calf thymus DNA at pH 5. It is filed as nucleic-acid assay.

`COc1ccc2[nH]c3ccc4cc[n+](CCN5CCC(C6CCN(CC[n+]7ccc8ccc9[nH]c%10ccc(OC)cc%10c9c8c7)CC6)CC5)cc4c3c2c1`: the Ka came to 2e+07 M⁻¹ with Nucleic Acid [1] and 5e+08 M⁻¹ in the assay on Nucleic Acid [2].
